# “And” between values parts separate entries of the source, which are not always exact repeats. Equal values may be shown once. Read-outs that look alike come from different tables or passages of the source.
# Target: F.Xa (factor Xa of bovine origin) (Bos taurus, UniProt P00743)
# Details: for conversion chart constant e (equation 2, anti-Xa activity % to ng/ml) / conversion chart constant i (equation 2, anti-Xa activity % to ng/ml): non-linear regression of equation 2
# From the text: The reagents from the commercial kit STA®—Liquid Anti-Xa (Diagnostica Stago, Asniéres sur Seine, France), F.Xa (factor Xa of bovine origin) and substrate (MAPA-Gly-Arg-pNA) were used. These commercial reagents and also the pool of normal human plasma Pool Norm (Diagnostica Stago, Asnieres sur Seine, France), the Owren Koller buffer (OKB) (pH 7.35, STA®—Owren-Koller, Diagnostica Stago, Asnieres sur Seine, France) and the desorption solution (DU) STA®—Desorb U (Diagnostica Stago, Asnieres sur Seine, France) were regenerated at room temperature for 30 minutes, as recommended by the manufacturer.
# The kinetics were monitored by colorimetry at 405 nm, detecting the release of para-nitroanilide (pNA). The optical density (OD) was measured every two seconds. Two methodologies were optimized for assaying the three direct oral anti-Xa anticoagulants: the broad-range methodology and the narrow-range methodology. This is because the broad-range methodology makes it possible to assay the anticoagulants over the whole of the desired range; however, since the measurement of low concentrations of these anticoagulants requires great precision a narrow-range methodology was therefore developed.
# In broad range, 6.25 μl of biological sample (plasma) were diluted with OKB in a final volume of 50 μl. The microcuvette was incubated for 240 seconds at 37° C. in the presence of 150 μl of substrate. The reaction was started by the addition of 150 μl of F.Xa, incubated beforehand at 37° C. In narrow range, 25 μl of sample were diluted with 25 μl of OKB. The experimental conditions for addition of substrate and enzyme are the same as for the broad-range methodology. The gradients were determined between 50 and 80 seconds.
# The calibration was carried out from a range of F.Xa composed of 10 points ranging from 10% to 100% F.Xa, corresponding to an anti-Xa activity ranging from 90% to 0%. The range was created from reagents from the kit STA® Liquid Anti-Xa. The F.Xa (2 ml, 1.8 ml, . . . , 0.2 ml) was diluted in OKB (0 ml, 0.2 ml . . . 1.8 ml) for a final volume of 2 ml. The pool of healthy plasmas dated 04/2014 was used for this experiment. 5% DMSO was diluted to 1/20th in the plasma. The results (measurements of the OD/min between 50 and 80 seconds) were determined in two replicates.
# The gradients of the kinetics measured for the 10 calibration points make it possible to plot the graph of anti-Xa activity (%) as a function of the OD/min. The equation of the line obtained is used to convert the OD/min of the samples tested into anti-Xa activity as percentage. The equation of the line is given by a polynomial regression of first order or of second order.
# The parameters of the chart, specific to each direct oral anticoagulant (DOA), were determined for both of the methodologies (broad-range methodology and narrow-range methodology) by a non-linear regression of equation 2 on a few experimental points. […] The OD/min was measured for each sample between 50 and 80 seconds.
# The limit of blank (LoB) was determined according to a standard procedure. The five different plasmas used were those dated January 2011, March 2012, April 2014, November 2014 and February 2015. Four replicates were carried out each day for three days, on the same automated device. The tests were carried out for the broad-range and narrow-range methodologies.
# The limit of detection (LoD) was determined according to a standard procedure. Low-analyte plasmas were prepared. The overloads were carried out to 1/20th. The plasma dated 04/2014 was used. […] In narrow range, the concentrations of the overloads were 5 ng/ml for the three anticoagulants. Five overloads were produced for a final volume of 900 μl. When the regression of the universal calibration was a second-order polynomial, the concentrations of analytes in broad range and in narrow range were 2 ng/ml for the three direct oral anticoagulants (DOAs). The final volume of the overloads was 1000 μl. Each overload was separated into three tubes.
# [1] = broad-range methodology, plasma sample diluted 1/8 in OKB, linear universal calibration
# [2] = narrow-range methodology, plasma sample diluted 1/2 in OKB, linear universal calibration
# [3] = optimization in narrow-range methodology, universal calibration regressed by second-order polynomial
# Chain of F.Xa (factor Xa of bovine origin) (P00743 234-492 limits assumed): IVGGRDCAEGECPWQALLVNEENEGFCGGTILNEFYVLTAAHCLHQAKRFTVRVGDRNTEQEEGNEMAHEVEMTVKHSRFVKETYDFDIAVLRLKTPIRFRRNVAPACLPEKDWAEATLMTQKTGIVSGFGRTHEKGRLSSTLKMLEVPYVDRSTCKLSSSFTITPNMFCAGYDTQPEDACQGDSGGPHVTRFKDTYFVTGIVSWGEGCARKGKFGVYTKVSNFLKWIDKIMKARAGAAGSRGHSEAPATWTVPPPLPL
# Chain of F.Xa (factor Xa of bovine origin) (P00743 41-180 partner limits assumed): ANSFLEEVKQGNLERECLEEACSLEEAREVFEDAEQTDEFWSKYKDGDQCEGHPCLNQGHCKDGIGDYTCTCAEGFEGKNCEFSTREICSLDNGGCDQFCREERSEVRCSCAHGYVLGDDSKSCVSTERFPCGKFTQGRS
smiles,measurement,setting,value
COc1ccc(-n2nc(C(N)=O)c3c2C(=O)N(c2ccc(N4CCCCC4=O)cc2)CC3)cc1 [apixaban],"conversion chart constant e (equation 2, anti-Xa activity % to ng/ml)",broad-range methodology,14.66
same,"conversion chart constant i (equation 2, anti-Xa activity % to ng/ml)",broad-range methodology,1.35
same,LoB (limit of blank),[1],16.613 ng/mL
same,LoD (limit of detection),[1],21.8 ng/mL and 21.723 ng/mL
same,"conversion chart constant e (equation 2, anti-Xa activity % to ng/ml)",narrow-range methodology,13.23
same,"conversion chart constant i (equation 2, anti-Xa activity % to ng/ml)",narrow-range methodology,2.91
same,LoB (limit of blank),[2],5.450 ng/mL
same,LoD (limit of detection),[2],6.9 ng/mL and 6.882 ng/mL
same,LoB (limit of blank),[3],2.759 ng/mL
same,LoD (limit of detection),[3],4.001 ng/mL
